For experiment [1], the target named is T1, Olfr1377 (Mus musculus, UniProt B2RQ46).
T1 sequence (B2RQ46 1-307): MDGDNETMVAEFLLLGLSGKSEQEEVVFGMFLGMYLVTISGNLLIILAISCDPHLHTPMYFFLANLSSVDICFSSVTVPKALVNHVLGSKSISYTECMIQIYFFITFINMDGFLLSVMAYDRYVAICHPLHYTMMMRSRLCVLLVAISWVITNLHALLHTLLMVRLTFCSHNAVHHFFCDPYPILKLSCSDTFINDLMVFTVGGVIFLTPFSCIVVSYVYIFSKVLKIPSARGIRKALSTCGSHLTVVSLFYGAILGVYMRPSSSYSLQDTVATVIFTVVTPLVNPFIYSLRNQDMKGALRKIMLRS
Nature of the experiment: CRE-luciferase reporter assay in Hana3A cells. The class given is cell-based. Further details: expressed from plasmid in Hana3A cells with RTP1S and M3R. (In general: In a reporter assay the amount or activity of a reporter protein is the signal.)

For experiment [2], the target named is T1, Olfr1377. Nature of the experiment: in vivo two-photon GCaMP6s imaging of the receptor-tagged glomerulus. Details: native receptor in mKate2-labelled olfactory sensory neurons (IRES-mKate2 after the CDS, receptor unaltered). Conditions: agonist; estimated delivered odorant concentration (olfactometer), anesthetized mice.
For experiment [3], the target named is T1, Olfr1377. The experiment is described as above. Details: native receptor in mKate2-labelled olfactory sensory neurons (IRES-mKate2 after the CDS, receptor unaltered). To be noted: agonist; inhaled odorant on the order of 10^0 nM, anesthetized mice.
Another experiment has as its target T2, Olfr881 (Mus musculus, UniProt Q8VF63).
T2 construct: gene Or8b35; native receptor in mKate2-labelled olfactory sensory neurons (IRES-mKate2 after the CDS, receptor unaltered)
T2 sequence (Q8VF63 1-314): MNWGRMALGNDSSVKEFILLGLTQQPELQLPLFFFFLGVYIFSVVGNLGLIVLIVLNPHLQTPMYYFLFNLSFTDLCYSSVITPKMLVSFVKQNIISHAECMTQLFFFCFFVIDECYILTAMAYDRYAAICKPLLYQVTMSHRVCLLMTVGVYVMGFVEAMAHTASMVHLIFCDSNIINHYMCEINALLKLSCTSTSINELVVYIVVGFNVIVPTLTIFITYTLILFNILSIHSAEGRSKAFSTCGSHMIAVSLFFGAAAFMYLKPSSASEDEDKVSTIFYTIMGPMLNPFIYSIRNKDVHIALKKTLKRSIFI
Nature of the experiment: in vivo two-photon GCaMP6s imaging of the receptor-tagged glomerulus; pS6-IP RNA-Seq. To be noted: agonist; inhaled odorant, anesthetized mice (imaging).

In general, EC50 refers to the concentration giving half of the maximal effect. Read a low EC50 as a more potent agent.

Turning to `CC(=O)c1ccccc1O` [2′-hydroxyacetophenone], the EC50 on Olfr1377 [1] stood at 300 µM.
Take `COc1ccc(C(C)=O)cc1` [4-methoxyacetophenone]: on Olfr1377 [2], the “in vivo response threshold” value is reported as ~ 10^−13 M. Moreover, it took 0.008 µM to reach a half-maximal effect on Olfr1377 [1] (EC50).
Take `CC(=O)C=C(C)C` [4-methyl-3-penten-2-one]: at Olfr1377 [3], the “glomerular response to odorant” value is “Olfr1377 showed strong responses to p-anisaldehyde, acetophenone, and the aliphatic ketone 4-methyl-3-penten-2-one”.
`CC(=O)c1ccc(C)cc1` [4-methylacetophenone] came in with a half-maximal effective concentration (EC50) at Olfr1377 [1] of 1 µM. In addition, the “in vivo two-photon GCaMP6s imaging of the receptor-tagged glomerulus; pS6-IP RNA” value on Olfr881 is “both Olfr1377 and Olfr881 exhibited robust responses to low concentrations of 4-methylacetophenone”.
Consider `CC(=O)c1ccccc1` [acetophenone], for which the EC50 at Olfr1377 [1] was 10.1 µM.
Turning to `COc1ccc(C=O)cc1` [p-anisaldehyde], the “glomerular response to odorant” value on Olfr1377 [3] was “Olfr1377 showed strong responses to p-anisaldehyde, acetophenone, and the aliphatic ketone 4-methyl-3-penten-2-one”.

The values are drawn from paper PMC9437035, “Decoding the olfactory map through targeted transcriptomics links murine olfactory receptors to glomeruli” (Nature Communications, 2022).
